Legend:
[1] = test system: LNCaP control-shRNA cells; assay: CEA-specific CTL lysis assay, LNCaP control-shRNA targets; details: 10 μM, 48 hours, E:T 30:1, P<0.05
Experimental: (§4) At specific time points, cells were harvested and counted. Equal numbers of effector target cells from all treatment were plated with respective cytotoxic T-cells.

ZR75-1 cells = details: 10 μM, 48 hours
Experimental: (§5) After 48 hours, cells were harvested and stained with the following antibodies: HLA A2-PE-Cy7, MUC-1-FITC, CD54-BV421, CD95-FITC (BD Biosciences, San Jose, Calif.), CEA-APC (Miltenyi Biotec, Auburn, Calif.), TRAIL receptor 1 and TRAIL receptor 2 (R & D Systems, Minneapolis, Minn.). LIVE/DEAD Fixable Violet Dead Cell Stain (Life Technologies, Grand Island, N.Y.) was used to determine cell viability. Cells were incubated with the antibodies for 30 min at 4° C., acquired on a FACS Verse flow cytometer (Becton Dickinson, Franklin Lakes, N.J.), and analyzed using FlowJo software (TreeStar, Inc., Ashland, Oreg.).

[2] = test system: PC-3 (AR−, HLA-A24) cells; assay: Cell proliferation and viability by trypan blue exclusion, PC-3; format: cell-based, human; details: 10 μM
Experimental: (§1) Cells were harvested 24, 48, or 72 h after exposure, and the total number of adherent viable cells was determined by trypan blue exclusion. Viability was confirmed by 7AAD staining.

prostate cancer = details: reported clinical trials; cited from earlier work
[3] = test system: MDA MB 231 (ER−AR−) cells; assay: TRAIL-mediated lysis assay, MDA MB 231 targets; format: cell-based, human; details: 10 μM, 500 ng/ml KillerTRAIL, P<0.01
Experimental: (§2) The HLA-A2-restricted CEA-specific CTL recognizes the CEA peptide epitope […] (SEQ ID NO: 1) (CAP-1). […] The percentage of tumor lysis was calculated as follows: % tumor lysis=[(experimental cpm−spontaneous cpm)/(maximum cpm−spontaneous cpm)]×100.
(§3) OPG expression was inhibited in MDA MB 231 cells using siRNA duplexes targeting OPG sequences and control siRNA duplexes (Origene, Rockville, Md.). MDA-MB-231 cells were transfected with OPG or control siRNA according to the manufacturer's instructions. […] Forty-eight hours post siRNA transfection, the MDA MB 231 cells were also used as target cells in CEA-specific CTL and TRAIL-mediated lysis assays as described.

BT549 (ER−AR+) cells = assay: CEA-specific CTL lysis assay, BT549 targets; format: cell-based, human; details: 10 μM, E:T 30:1, vs vehicle, P<0.01
Experimental: as §2

[4] = test system: MDA MB 231 (ER−AR−) cells; assay: CEA-specific CTL lysis assay, MDA MB 231 targets; format: cell-based, human; details: 10 μM, E:T 30:1, vs vehicle
Experimental: as §2, §3
These cells were then used as target cells for CTL-mediated killing assays utilizing CEA-specific CTLs.

BT549 cells = details: 10 μM, 48 hours
Experimental: as §5

[5] = test system: LNCaP control-shRNA (AR+, HLA-A2) cells; details: 10 μM; P<0.01
[6] = test system: LNCaP (AR+, HLA-A2) cells; assay: Cell proliferation and viability by trypan blue exclusion, LNCaP; format: cell-based, human; details: 10 μM
Experimental: as §1

[7] = test system: MDA MB 231 (ER−AR−) cells; assay: Apoptosis PCR array (90 genes) in MDA MB 231 cells; format: cell-based, human; details: 24 hours, qRT-PCR
Experimental: Total RNA was isolated from the cells using the RNeasy Extraction Kit (Qiagen, Valencia, Calif.). RNA was reverse-transcribed into cDNA using the Advantage RT-for-PCR Kit (Clontech, Mountain View, Calif.). cDNA (10 ng) was used in a quantitative real-time (RT) PCR reaction using probes specific for AR (Hs00901571_m1) and GAPDH (4326317E). AR mRNA expression level was calculated as expression relative to GAPDH. […] Total RNA was isolated from the cells using the RNeasy Extraction Kit. RNA was reverse-transcribed into cDNA using the RT^2 First Strand Kit (SA Biosciences, Valencia, Calif.). Relative mRNA expression levels of 90 genes involved in apoptosis were assessed using an apoptosis PCR array (SA Biosciences) per the manufacturer's instructions. RT-PCR was performed on the 7300 Real-Time PCR System (Applied Biosystems, Carlsbad, Calif.).
OPG is a decoy receptor for receptor activator of nuclear factor kappa-B ligand (RANKL) which inhibits RANKL activation of nuclear factor kappa-B induced apoptosis.

NAIP = NAIP immunohistochemistry in LNCaP xenografts in nude mice; format: in vivo; details: 10 mg/day, 7 days
Description: To examine the reduced expression of NAIP in vivo, either LNCaP or PC-3 cells were transplanted into […] nude mice (Charles River, Wilmington, Mass.) (s.c. in the right flank with 5×10^6 LNCaP or PC-3 prostate tumor cells). […] After 7 days of treatment, tumors were subjected to immunohistochemistry staining to detect the presence and intensity of NAIP expression. Specifically, NAIP expression was detected via immunohistochemistry using a rabbit polyclonal antibody to NAIP (Novus Bio, Littleton, Colo.) according to the manufacturer's instructions. Entire slides were digitally scanned by an Aperio ScanScope CS system and analyzed by Aperio ImageScope Viewer software (Aperio Technologies Inc., Vista, Calif.). Statistical analysis was performed using 3-7 murine tumors, each prepared as a complete stained tumor section. Positive tumor regions were determined using the Positive Pixel Count v9 algorithm. Negative controls included omission of primary antibody with PBS and matched rabbit isotype antibody. In all cases, necrotic areas of tumor were excluded from analysis.

LNCaP cells [8] = assay: PSA-specific CD8+ T-cell killing, LNCaP targets; details: 10 μM, 48 hours, E:T 30:1, P<0.01
Experimental: as §4

LNCaP cells [9] = assay: CEA- or PSA-specific CD8+ T-cell killing, LNCaP targets; format: cell-based, human; details: 10 μM, 48 hours, P<0.01
OPG = assay: ELISA of secreted OPG, MDA MB 231 cells; format: cell-based, human; details: 10 μM, 48 hours, P<0.05
Experimental: ELISA was performed on combined supernatant samples taken following 24 and 48 hours of treatment.
as §3

[10] = trypan blue exclusion after 3 days of drug exposure

## enzalutamide
[1]
  sensitivity to CEA-specific CTL-mediated lysis: significantly enhanced the sensitivity
ZR75-1 cells
  CEA mean fluorescence intensity: 4690
  CEA percent positivity: 28.9%
  Fas mean fluorescence intensity: 1611
  Fas percent positivity: 26.8%
  HLA A2 mean fluorescence intensity: 3047
  HLA A2 percent positivity: 10.0%
  ICAM-1 mean fluorescence intensity: 2473
  ICAM-1 percent positivity: 26.1%
  MUC-1 mean fluorescence intensity: 2203
  MUC-1 percent positivity: 37.1%
  Trail R1 mean fluorescence intensity: 4325
  Trail R1 percent positivity: 7.9%
  Trail R2 mean fluorescence intensity: 4502
[2]; [10]
  viability of PC-3 cells: Neither enzalutamide nor abiraterone affected the viability
[2]; vs vehicle (DMSO)
  proliferation of PC-3 cells: did not inhibit the proliferation
Prostate cancer
  prostate cancer patients who did not respond and continued to have rising PSA levels: more than 30%
[3]
  sensitivity to Trail-mediated lysis: significantly improved the sensitivity
BT549 (ER−AR+) cells
  sensitivity to CEA-specific CTL-mediated lysis: significantly improved their sensitivity
[4]
  sensitivity to CEA-specific CTL-mediated lysis: capable of increasing the sensitivity
BT549 cells; BT549 (ER−AR+)
  cell-surface markers with increased expression: upregulated the expression of ICAM-1 as well as Trail receptors 1 and 2 and the tumor associated antigen CEA
BT549 cells; BT549
  CEA mean fluorescence intensity: 3443
  CEA percent positivity: 15.3%
  Fas mean fluorescence intensity: 566
  Fas percent positivity: 15.8%
  HLA A2 mean fluorescence intensity: 2532
  HLA A2 percent positivity: 87.6%
  ICAM-1 mean fluorescence intensity: 6239
  ICAM-1 percent positivity: 26.1%
  MUC-1 mean fluorescence intensity: 930
  MUC-1 percent positivity: 25.5%
  Trail R1 mean fluorescence intensity: 562
  Trail R1 percent positivity: 23.6%
[5]
  proliferation of LNCaP control-shRNA: significantly inhibited the proliferation
[6]; [10]
  viability of LNCaP cells: Neither enzalutamide nor abiraterone affected the viability
[6]; vs vehicle (DMSO), P<0.01
  growth / proliferation of LNCaP cells: significantly inhibited the growth
[7]
  osteoprotegerin (OPG) gene down-regulated: ~25 fold
NAIP; immunohistochemistry
  NAIP staining in LNCaP tumors vs untreated mice: much less intense staining
NAIP; LNCaP xenografts, P<0.01
  decrease of overall population of tumor cells expressing NAIP: 1.5 fold
  increase in tumor area that did not express NAIP: 2.2 fold
LNCaP cells [8]
  sensitivity to PSA-specific T-cell killing: significantly improved their sensitivity
LNCaP cells [9]
  sensitivity to T-cell killing: significantly improved the cells' sensitivity
OPG
  amount of secreted OPG: reduced the amount of OPG

— patent US20170306042A1, “IMMUNOGENIC MODULATION BY ENDOCRINE DEPRIVATION THERAPY IMPROVES SENSITIVITY OF TUMOR CELLS TO IMMUNE MEDIATED LYSIS” (The United States of America, as represented by the …, priority 2014, published 2017)
